Patent publication US6489338B2, “Imidazopyridine and imidazopyrimidine antiviral agents” (Bristol-Myers Squibb Company, priority 2000, dated 2002)
pEC50: −log10 of the molar value.

Tested on: respiratory syncytial virus Long strain
Assay: Antiviral activity against respiratory syncytial virus, MTT cell protection assay in HEp-2 cells
Assay type: cell-based
Settings: HEp-2 cells infected with RSV Long strain, MTT staining
Experimental: The antiviral activity of these compounds against respiratory syncytial virus was determined in HEp-2 (ATCC CCL 23) cells that were seeded in 96 well microtiter plates at 1.5×10^4 cells/100 μL/well in DMEM (Dulbecco's Modified Eagle's Medium) supplemented with penicillin, streptomycin, glutamine, and 10% fetal bovine serum. The cells were incubated overnight at 37° C., the culture medium was removed, and cells were infected (100 μL volume in medium containing 2% fetal bovine serum) with respiratory syncytial virus Long strain at 5000 plaque forming units/mL. The compounds, 100 μL at appropriate dilution, were added to the cells 1 hour post infection. After incubation for 4 days at 37° C., the plates were stained with MTT solution (3-[4,5-dimethlythiazol-2-yl]-2,5-diphenyltetrazolium bromide) and incubated for 4 hours at 37° C. The media was aspirated from the cells and 100 μL/well of acidified isopropanol (per liter: 900 mL isopropanol, 100 mL Triton X100, and 4 mL conc. HCl) was added. Plates were incubated for 15 minutes at room temperature with shaking, and an optical density (OD 540) reading at 540 nanometer (nm) was obtained. The optical density reading is proportional to the number of viable cells. The increase in the number of viable cells reflects the protective, antiviral activity of the compound. […]

NC(=O)c1ncn([C@@H]2O[C@H](CO)[C@@H](O)[C@H]2O)n1 [Ribavirin] was tested. Which cell protection (at 2.5 μg/mL (corresponding to 10.2 μM)) did it give?
The cell protection was 100%.

And the pEC50 (human respiratory syncytial virus, compound added 1 hour post infection, 4 days at 37° C., read-out: EC50 (concentration that produces 50% cell protection))?
The pEC50 was 5.52.
